pEC50: −log10 of the molar value.
Test system: HT-1080 cells
Test: HT-1080 cell viability assay (ferroptosis induced by RSL3, Cell Titer-Glo)
Type: cell-based
Settings: ferroptosis inducer RSL3, 20 hours, ferroptosis inhibitory activity
Method in brief: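 Cells seeded overnight, then co-treated with RSL3 and compound (3-fold, 10-point dilution, top 1.1 μM) for 20 hours. Viability by CellTiter-Glo luminescence, normalized to untreated controls; EC50 from sigmoidal non-linear regression.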

[1] = Homo sapiens, HT-1080, 20 h, Table 2
[2] = Homo sapiens, HT-1080, 20 h, Table 3

pEC50 [1] | SMILES | further results
7.00 to 10.00 | CN1CCC(Nc2ccc(N3CCC(C(F)(F)F)CC3)cc2)C1 (stereo not drawn) [Compound 16, 1-methyl-N-(4-(4-(trifluoromethyl)piperidin-1-yl)phenyl)pyrrolidin-3-amine] | –
7.00 to 10.00 | NC1CCC(Nc2ccc(C3CCCCC3)cc2)CC1 (stereo not drawn) [Compound 122, N1-(4-cyclohexylphenyl)cyclohexane-1,4-diamine] | –
7.00 to 10.00 | Cc1cc(NC2CCC(N)CC2)ccc1N1CCC(C(F)(F)F)CC1 (stereo not drawn) [Compound 66, N1-(3-methyl-4-(4-(trifluoromethyl)piperidin-1-yl)phenyl)cyclohexane-1,4-diamine] | –
7.00 to 10.00 | NC1CCC(Nc2ccc(N3CCC(C(F)(F)F)CC3)cc2Cl)CC1 (stereo not drawn) [Compound 70, N1-(2-chloro-4-(4-(trifluoromethyl)piperidin-1-yl)phenyl)cyclohexane-1,4-diamine] | –
7.00 to 10.00 | O=C1NC[C@H](C(=O)NCC2CCC(Nc3ccc(N4CCC(C(F)(F)F)CC4)cc3)CC2)N1 (stereo partly drawn) [Compound 18, (R)-2-oxo-N-((4-((4-(4-(trifluoromethyl)piperidin-1-yl)phenyl)amino)cyclohexyl)methyl)imidaz olidine-4-carboxamide] | –

Second part, the compound before the results:

SMILES | pEC50 [1] | further results
NC1CCC(Nc2ccc(N3CCCCC3CO)cc2)CC1 (single isomer, unassigned) [Compound 417B, (1-(4-((4-aminocyclohexyl)amino)phenyl)piperidin-2-yl)methanol] | – | pEC50 (Table 2): 6.00 to 7.00
CCC(C)(C)c1ccc(NC2CC(N)C2)cc1 (stereo not drawn) [Compound 273, N1-(4-(tert-pentyl)phenyl)cyclobutane-1,3-diamine] | 7.00 to 10.00 | –
CC(C)(C)c1ccc(NC2CCCCC2N)cc1 (stereo not drawn) [Compound 152, N1-(4-(tert-butyl)phenyl)cyclohexane-1,2-diamine] | 6.00 to 7.00 | –
CC(C)(C)c1ccc(NC2CCC(N)(CN)CC2)cc1 (stereo not drawn) [Compound 270, 1-(aminomethyl)-N4-(4-(tert-butyl)phenyl)cyclohexane-1,4-diamine] | 6.00 to 7.00 | –
CC[C@@H]1CN(c2ccc(N[C@H]3C[C@@H](N)C3)c(C)n2)C[C@H](C)O1 [Compound 618, (1s,3S)-N1-(6-((2R,6S)-2-ethyl-6-methylmorpholino)-2-methylpyridin-3-yl)cyclobutane-1,3-diamine] | – | pEC50 [2]: 6.00 to 7.00
CC[C@@H]1CN(c2ccc(NC3CC4(CC(N)C4)C3)c(C)n2)C[C@@H](C)O1 (stereo partly drawn) [Compound 547, N^2-(6-((2R,6R)-2-ethyl-6-methylmorpholino)-2-methylpyridin-3-yl)spiro[3.3]heptane-2,6-diamine] | 7.00 to 10.00 | –
Cc1nc(N2CCOCC2)ccc1NC1C2CC3CC1CC(CN)(C3)C2 (stereo not drawn) [Compound 538A, N-((2r,5s)-5-(aminomethyl)adamantan-2-yl)-2-methyl-6-morpholinopyridin-3-amine] | 7.00 to 10.00 | –
CC[C@@H]1CN(c2ccc(NC3CC4CCC(C3)N4)c(C)n2)C[C@H](CC)O1 (stereo partly drawn) [Compound 657, N-(6-((2S,6R)-2,6-diethylmorpholino)-2-methylpyridin-3-yl)-8-azabicyclo[3.2.1]octan-3-amine] | – | pEC50 [2]: 7.00 to 10.00
CCCc1ccc(NC2CCC(C)(N)CC2)cc1 (stereo not drawn) [Compound 278, 1-methyl-N4-(4-propylphenyl)cyclohexane-1,4-diamine] | 7.00 to 10.00 | –
CC(C)(C)c1ccc(NC2CCC(NC(=O)[C@H]3CNC(=O)N3)CC2)cc1 (single isomer, unassigned) [Compound 115A] | 6.00 to 7.00 | –
CCc1cc(N2C[C@@H](C)O[C@@H](C)C2)ccc1NC1CC2(CC(N)C2)C1 (stereo partly drawn) [Compound 640, N2-(4-((25,6R)-2,6-dimethylmorpholino)-2-ethylphenyl)spiro[3.3]heptane-2,6-diamine] | – | pEC50 [2]: 7.00 to 10.00
CC[C@@H]1CN(c2ccc(NC[C@H]3CC[C@H](N)CC3)c(C)n2)C[C@H](CC)O1 [Compound 500, N-(((1r,4R)-4-aminocyclohexyl)methyl)-6-((2R,6S)-2,6-diethylmorpholino)-2-methylpyridin-3-amine] | 7.00 to 10.00 | –
CC1(C)CCC(c2ccc(NC3CCC(CN)CC3)cn2)CC1 (stereo not drawn) [Compound 167, N-(4-(aminomethyl)cyclohexyl)-6-(4,4-dimethylcyclohexyl)pyridin-3-amine] | 6.00 to 7.00 | –
